Measured values reported in patent US20180147177A1, “Antibacterial Compositions Comprising Copper Oxo-Hydroxide Nanoparticles and Their Uses as Biocidal Agents” (Medical Research Council, priority 2015, published 2018).

Tests used:
[1] = test system: Escherichia coli NCTC11100; assay: Bacterial growth inhibition assay (turbidimetric, OD 595 nm, HMM medium); format: cell-based; conditions: E. coli, no copper
Procedure: Antimicrobial activity was assessed through determination of bacterial growth inhibition in the presence of copper compounds. A turbidimetric assay was used to follow bacterial concentration over time as this is proportional to optical density (OD at 595 nm) in liquid medium, allowing an easy screening of bacterial growth over time. Escherichia coli NCTC11100 and Staphylococcus aureus RN4220 were the tested microorganisms in this assay. Stock bacterial colonies were kept in cultivated in agar plates and on the day before the experiment, one colony was transferred into 10 ml of HMM liquid medium and grown overnight at 30° C. under constant shaking (80 rpm) in an incubator. […] Copper stock solutions (refer to section 2.1) were sequentially diluted in HMM to achieve typical concentrations between 0.8 and 100 ppm Cu in a volume of 0.1 ml. Next, 0.1 ml of bacterial culture was added and incubated with copper at 30° C. under constant agitation (80 rpm). Final copper concentrations in the assay ranged between 0.4 and 50 ppm, and OD was measured every hour for a typical period of 7-8 hours to follow bacterial growth. OD background, i.e. OD absorbance not caused by bacteria, was determined to remove readout interference from copper and broth. Growth inhibition was calculated as follows: […]

V. fischeri = assay: Minimum bactericidal concentration (liquid incubation, then agar plates); format: cell-based; conditions: n = 1
P. aeruginosa = assay: as above; format: cell-based; conditions: n = 1
[2] = Copper dispersibility in MOPS buffer pH 7.4; format: physicochemical; conditions: MOPS buffer pH 7.4±0.2, copper added up to 500 ppm
Procedure: Stock copper materials were diluted in 50 mM 3-(N-morpholino)propanesulfonic acid (MOPS) buffer at pH 7.4±0.2. Final copper concentrations varied between 10 and 500 ppm. Microparticulate copper was removed by centrifugation at 16000 g for 5 minutes. Total copper and supernatant (i.e. disperse fraction) were analysed by Inductively Coupled Plasma-Optical Emission Spectroscopy (ICP-OES) as described in section 2.4.1.

E. coli MC1061 = assay: Minimum bactericidal concentration (liquid incubation, then agar plates); format: cell-based; conditions: n = 1
B. subtilis BR151 = assay: as above; format: cell-based; conditions: n = 1
S. aureus RN4220 = assay: as above; format: cell-based; conditions: n = 1
[3] = Copper release from a gel matrix (HEC gel release assay); format: physicochemical; conditions: HEC gel with 250 ppm Cu, bicarbonate solution pH 7, over 24 hours
Procedure: This assay consisted of exposing the copper-containing HEC—with specific surface area (7.1 cm^2)—to a bicarbonate buffered solution at pH 7.0±0.2, following copper concentration over time.
10 g of the gel was poured into a 50 ml falcon tube and let settle down overnight. 10 ml of a 50 mM NaHCO3 solution at pH 7±0.2 were carefully transferred on the surface of the gel. Samples were collected over 24 hours and copper concentration in the overhead solution was determined by ICP-OES (see section 2.4.1.).

[4] = test system: Human dermal fibroblast cells (cell line CCD-25SK); assay: Cell proliferation of skin fibroblasts (IncuCyte confluence AUC); format: cell-based; conditions: CCD-25Sk skin fibroblasts, 48 hours
Procedure: CuCl2 and AgNO3 were also tested in parallel as positive controls. Percentage of cell confluence was determined experimentally using an IncuCyte Zoom and plotted overtime to determine the area under the curve (AUC) for each concentration tested. Cell proliferation was used as an indication for cell toxicity and was determined by normalising the AUC of cells exposed to the testing compounds against those of cells growing at normal rates (control).

Structure (SMILES): O.O.O=C([O-])CN(CCN(CC(=O)[O-])CC(=O)O)CC(=O)O.[Na+].[Na+] [EDTA, disodium ethylenediaminetetraacetate (EDTA) di-hydrate]
- antibacterial effect of the complexing agent alone (in words) [1]: had antibacterial effect

Structure (SMILES): O.O.[Cl][Cu][Cl] [CuCl2, CuCl2.2H2O]
- MBC (V. fischeri; 4 h incubation): 100 ppm Cu
- MBC (V. fischeri; 24 h incubation): 100 ppm Cu
- MBC (V. fischeri; 48 h incubation): >100 ppm Cu
- MBC (V. fischeri; 72 h incubation): >100 ppm Cu
- MBC (V. fischeri; 96 h incubation): >100 ppm Cu
- MBC (P. aeruginosa; 4 h incubation): 100 ppm Cu
- MBC (P. aeruginosa; 24 h incubation): 100 ppm Cu
- MBC (P. aeruginosa; 48 h incubation): 100 ppm Cu
- MBC (P. aeruginosa; 72 h incubation): 100 ppm Cu
- MBC (P. aeruginosa; 96 h incubation): 100 ppm Cu
- dispersible fraction (maximum) [2]: ca. 10 ppm of Cu
- MBC (E. coli MC1061; 4 h incubation): 100 ppm Cu
- MBC (E. coli MC1061; 24 h incubation): 50 ppm Cu
- MBC (E. coli MC1061; 48 h incubation): 10 ppm Cu
- MBC (E. coli MC1061; 72 h incubation): 50 ppm Cu
- MBC (E. coli MC1061; 96 h incubation): 50 ppm Cu
- MBC (B. subtilis BR151; 4 h incubation): >100 ppm Cu
- MBC (B. subtilis BR151; 24 h incubation): >100 ppm Cu
- MBC (B. subtilis BR151; 48 h incubation): >100 ppm Cu
- MBC (B. subtilis BR151; 72 h incubation): >100 ppm Cu
- MBC (B. subtilis BR151; 96 h incubation): >100 ppm Cu
- MBC (S. aureus RN4220; 4 h incubation): 100 ppm Cu
- MBC (S. aureus RN4220; 24 h incubation): 50 ppm Cu
- MBC (S. aureus RN4220; 48 h incubation): 50 ppm Cu
- MBC (S. aureus RN4220; 72 h incubation): 50 ppm Cu
- MBC (S. aureus RN4220; 96 h incubation): 50 ppm Cu
- Cu released from HEC matrix [3]: ≤ 10 ppm
- concentration from which cell proliferation decreased [4]: ≥ 50000 ng/mL

Structure (SMILES): O=[N+]([O-])[O-].[Ag+] [AgNO3]
- concentration from which cell proliferation decreased [4]: ≥ 10000 ng/mL
